Source: US20100298252A1, “METHODS AND COMPOSITIONS FOR OPHTHALMIC TREATMENT OF FUNGAL AND BACTERIAL INFECTIONS” (priority 2004, published 2010)

Columns and labels:
[1] = system: Cladosporium sp.; assay: Antifungal MIC 50 / MIC 90 alone and combined with Tricide; assay type: cell-based
[2] = system: Paecilomyces variotti ATCC 36257; assay: as above; assay type: cell-based
[3] = system: Fusarium sp. 1; assay: microbe, parasite or virus in culture; assay type: cell-based;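 also: mean MIC 50 and MIC 90 values against fungal isolates, with percent decrease in MIC when the antifungal is combined with Tricide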
[4] = system: Curvularia sp.; assay: Antifungal MIC 50 / MIC 90 alone and combined with Tricide; assay type: cell-based;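 also: antifungal MIC 50 and MIC 90 values against fungal isolates, with percent figures expressing how much the MIC fell once Tricide was added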
[5] = system: Fusarium sp. 2; assay: microbe, parasite or virus in culture; assay type: cell-based
[6] = system: Penicillium sp.; assay: Antifungal MIC 50 / MIC 90 alone and combined with Tricide; assay type: cell-based
[7] = system: Fusarium sp. 3; assay: microbe, parasite or virus in culture; assay type: cell-based
[8] = system: Aspergillus sp.; assay: Antifungal MIC 50 / MIC 90 alone and combined with Tricide; assay type: cell-based
[9] = system: Candidia albicans ATCC 90028; assay: as above; assay type: cell-based, Candida albicans;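 also: MIC 50 and MIC 90 values are means, and the percent decrease is the drop in MIC when the antifungal is combined with Tricide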
[10] = Paecilomyces variotti ATCC36257
[11] = Paecilomyces variotti, Tricide […]
[12] = Fusarium sp. 1, Tricide 540 ug/ml
[13] = Fusarium sp. 1, antifungal alone
[14] = Curvilaria sp., Tricide 200 ug/ml
[15] = Curvularia sp., antifungal alone
[16] = Aspergillus sp., Tricide 200 ug/ml
[17] = Aspergillus, Aspergiullus sp., antifungal alone
[18] = Candida albicans, ATCC90028, Candidia albicans ATCC 90028, antifungal alone

Compound: CCC(C)n1ncn(-c2ccc(N3CCN(c4ccc(OCC5COC(Cn6cncn6)(c6ccc(Cl)cc6Cl)O5)cc4)CC3)cc2)c1=O (centres unmarked) [Itraconazole, itraconazole]
- Summary % reduction in MIC 50 using Tricide [1]: 93.8%
- Summary % reduction in MIC 90 using Tricide [1]: 96.9%
- % decrease MIC 50 ([1]; Tricide 200 ug/ml): >93.8% ^
- % decrease MIC 90 ([1]; Tricide 200 ug/ml): 96.9%
- MIC 50 combined with Tricide ([1]; Tricide 200 ug/ml): <0.25 µg/mL
- MIC 90 combined with Tricide ([1]; Tricide 200 ug/ml): 0.5 µg/mL
- MIC50 ([1]; antifungal alone): 4 µg/mL
- MIC90 ([1]; antifungal alone): 16 µg/mL
- MIC50 ([2]; ATCC36257, Paecilomyces variotti ATCC 36257, antifungal alone, read-out: MIC 50): 0.0764 µg/mL
- MIC90 ([2]; ATCC36257, Paecilomyces variotti ATCC 36257, antifungal alone, read-out: MIC 90): 0.5 µg/mL
- Summary % reduction in MIC 50 using Tricide [2, 10]: 95%
- Summary % reduction in MIC 90 using Tricide [2, 10]: 50%
- % decrease MIC 50 [2, 11]: 95%
- % decrease MIC 90 [2, 11]: 50%
- MIC 50 combined with Tricide [2, 11]: 3.9 ng/mL
- MIC 90 combined with Tricide [2, 11]: 0.25 µg/mL
- Summary % reduction in MIC 50 using Tricide ([3]; Fasarium sp. 1): >99.9%-100%
- Summary % reduction in MIC 90 using Tricide ([3]; Fasarium sp. 1): 99.9%-100%
- % decrease MIC 50 [3, 12]: >99.9-100% ^
- % decrease MIC 90 [3, 12]: 99.9-100%^
- MIC 90 combined with Tricide [3, 12]: 0 to 0.05 µg/mL
- MIC50 [3, 13]: > 128 µg/mL
- MIC90 [3, 13]: > 128 µg/mL
- % decrease MIC 50 [4, 14]: 97-100% ^
- % decrease MIC 90 [4, 14]: 80-100% ^
- MIC 50 combined with Tricide [4, 14]: 0 to 0.0250 µg/mL
- MIC 90 combined with Tricide [4, 14]: 0 to 0.4 µg/mL
- Summary % reduction in MIC 50 using Tricide ([4]; Curvularia sp.): 97%-100%
- Summary % reduction in MIC 90 using Tricide ([4]; Curvularia sp.): 80%-100%
- MIC50 [4, 15]: 0.778 µg/mL
- MIC90 [4, 15]: 2 µg/mL
- Summary % reduction in MIC 50 using Tricide [5]: >99.9%-100%
- Summary % reduction in MIC 90 using Tricide [5]: >99.9%-100%
- % decrease MIC 50 ([5]; Tricide 540 ug/ml): >99.9-100% ^
- % decrease MIC 90 ([5]; Tricide 540 ug/ml): >99.9-100% ^
- MIC50 ([5]; antifungal alone): > 128 µg/mL
- MIC90 ([5]; antifungal alone): > 128 µg/mL
- Summary % reduction in MIC 50 using Tricide [6]: 100%
- Summary % reduction in MIC 90 using Tricide [6]: 100%
- % decrease MIC 50 ([6]; Tricide 200 ug/ml): 100%
- % decrease MIC 90 ([6]; Tricide 200 ug/ml): 100%
- MIC 50 combined with Tricide ([6]; Tricide 200 ug/ml): 0 µg/mL
- MIC 90 combined with Tricide ([6]; Tricide 200 ug/ml): 0 µg/mL
- MIC50 ([6]; antifungal alone): 0.5 µg/mL
- MIC90 ([6]; antifungal alone): 0.722 µg/mL
- Summary % reduction in MIC 50 using Tricide [7]: 100%
- Summary % reduction in MIC 90 using Tricide [7]: 100%
- % decrease MIC 50 ([7]; Tricide 540 ug/ml): 100%
- % decrease MIC 90 ([7]; Tricide 540 ug/ml): 100%
- MIC 50 combined with Tricide ([7]; Tricide 540 ug/ml): 0 µg/mL
- MIC 90 combined with Tricide ([7]; Tricide 540 ug/ml): 0 µg/mL
- MIC50 ([7]; antifungal alone): > 128 µg/mL
- MIC90 ([7]; antifungal alone): > 128 µg/mL
- % decrease MIC 50 [8, 16]: 84%
- % decrease MIC 90 [8, 16]: 90%
- MIC 50 combined with Tricide [8, 16]: 0.1250 µg/mL
- MIC 90 combined with Tricide [8, 16]: 0.25 µg/mL
- MIC50 [8, 17]: 0.786 µg/mL
- MIC90 [8, 17]: 2.43 µg/mL
- Summary % reduction in MIC 50 using Tricide ([8]; Aspergiullus sp.): 84%
- Summary % reduction in MIC 90 using Tricide ([8]; Aspergiullus sp.): 90%
- MIC50 [9, 18]: 0.201 µg/mL
- MIC90 [9, 18]: > 1 µg/mL
- % decrease MIC 50 ([9]; Candida albicans, Tricide […]): 100%
- % decrease MIC 90 ([9]; Candida albicans, Tricide […]): 100%
- MIC 50 combined with Tricide ([9]; Candida albicans, Tricide […]): 0 µg/mL
- Summary % reduction in MIC 50 using Tricide ([9]; Candidia albicans ATCC 90028): 100%
- Summary % reduction in MIC 90 using Tricide ([9]; Candidia albicans ATCC 90028): 100%
